From US9227921B2, “Salts and polymorphs of a tetracycline compound” (Paratek Pharmaceuticals, Inc., priority 2008, dated 2016)
Blank lines part the entries; values can stand above or below the compound they belong to.

Assays:
[1] = Stability studies on free base Compound 1 and amorphous diHCl salt; assay type: physicochemical; conditions: 40° C.
Experimental: Stability studies were performed on the free base Compound 1 and an amorphous diHCl salt of Compound 1. This salt was formed by dissolving the compound in aqueous solution, adjusting the pH of the solution to approximately 4.2, followed by lyophilization. The free base degraded in less than one month at 40° C., and approximately three months at 4° C. In contrast, the diHCl salt of Compound 1 was stable for 6 months at 40° C., and for two years at room temperature (25° C.).

[2] = Temperature and moisture stability study (HPLC impurity profile); assay type: physicochemical
Experimental: A stability study was conducted on tosylate salt and mesylate salt of Compound 1, by monitoring changes in the high performance liquid chromatography (HPLC) impurity profiles for each salt when exposed to various temperatures and/or humidity conditions. Each sample was placed in a closed container and exposed to three controlled environments: refrigerated (5° C.), 20° C. and 60% relative humidity, and 40° C. and 75% relative humidity. […] The stability study of the crystalline tosylate salt was continued.
Samples were analyzed by the following reversed-phase HPLC impurity profile method at time points 0, 1, 2, 4 weeks (Table 7) and 3 months (Table 8) for the tosylate salt; and 0, 1 and 2 weeks for the mesylate salt (Table 9).
Reversed-phase HPLC analysis was conducted using a SYMMETRY SHIELD RP18 column (4.6×250 mm, 5 µm particle size), although analysis using a similar or equivalent column would be expected to yield similar results. The mobile phase components were 0.01 M ammonium acetate in water at pH 3.3 (A) and acetonitrile (B). The mobile phase composition was a gradient that increased from 6% to 15% B in five minutes, held at 15% B for 15 minutes, increased from 15% to 60% B in ten minutes, then from 60% to 90% B in two minutes, and then the system was re-equilibrated at 6% B for four minutes. The flow rate was 1.0 mL/minute, and the injection volume was 10.0 μL. The column temperature was maintained at 30° C. Detection was by ultraviolet light (UV) at 280 nm. The retention time for Compound 1 was approximately 15.7 minutes. The sample solution was prepared in mobile phase A to a final concentration of 2.0 mg/mL.

time for which the substance was stable [1]: 6 months
SMILES: CN(C)c1cc(CNCC(C)(C)C)c(O)c2c1CC1CC3C(N(C)C)C(O)=C(C(N)=O)C(=O)C3(O)C(O)=C1C2=O.Cl.Cl (stereo not shown) [diHCl salt of Compound 1]

Compound 1 ([2]; 1 week, 5° C.): 98.2%
RRT 1.19 ([2]; 1 week, 5° C.): 0.17%
RRT 1.26 (beta-epimer) ([2]; 1 week, 5° C.): 1.6%
RRT 1.77 ([2]; 1 week, 5° C.): 0.08%
Total Impurities ([2]; 1 week, 5° C.): 1.85%
Compound 1 ([2]; 1 week, 20° C. & 60% RH): 98.0%
RRT 1.19 ([2]; 1 week, 20° C. & 60% RH): 0.17%
RRT 1.26 (beta-epimer) ([2]; 1 week, 20° C. & 60% RH): 1.8%
RRT 1.77 ([2]; 1 week, 20° C. & 60% RH): 0.09%
Total Impurities ([2]; 1 week, 20° C. & 60% RH): 2.06%
Compound 1 ([2]; 1 week, 40° C. & 75% RH): 97.1%
RRT 0.52 ([2]; 1 week, 40° C. & 75% RH): 0.07%
RRT 0.77 ([2]; 1 week, 40° C. & 75% RH): 0.05%
RRT 1.19 ([2]; 1 week, 40° C. & 75% RH): 0.16%
RRT 1.26 (beta-epimer) ([2]; 1 week, 40° C. & 75% RH): 2.6%
RRT 1.77 ([2]; 1 week, 40° C. & 75% RH): 0.09%
Total Impurities ([2]; 1 week, 40° C. & 75% RH): 2.97%
Compound 1 ([2]; 2 weeks, 5° C.): 98.3%
RRT 0.93 ([2]; 2 weeks, 5° C.): 0.06%
RRT 1.19 ([2]; 2 weeks, 5° C.): 0.20%
RRT 1.26 (beta-epimer) ([2]; 2 weeks, 5° C.): 1.3%
RRT 1.77 ([2]; 2 weeks, 5° C.): 0.09%
Total Impurities ([2]; 2 weeks, 5° C.): 1.65%
Compound 1 ([2]; 2 weeks, 20° C. & 60% RH): 98.1%
RRT 0.93 ([2]; 2 weeks, 20° C. & 60% RH): 0.06%
RRT 1.19 ([2]; 2 weeks, 20° C. & 60% RH): 0.20%
RRT 1.26 (beta-epimer) ([2]; 2 weeks, 20° C. & 60% RH): 0.11%
RRT 1.77 ([2]; 2 weeks, 20° C. & 60% RH): 0.11%
Total Impurities ([2]; 2 weeks, 20° C. & 60% RH): 1.87%
Compound 1 ([2]; 2 weeks, 40° C. & 75% RH): 96.6%
RRT 0.52 ([2]; 2 weeks, 40° C. & 75% RH): 0.05%
RRT 0.77 ([2]; 2 weeks, 40° C. & 75% RH): 0.07%
RRT 0.93 ([2]; 2 weeks, 40° C. & 75% RH): 0.06%
RRT 1.19 ([2]; 2 weeks, 40° C. & 75% RH): 0.19%
RRT 1.26 (beta-epimer) ([2]; 2 weeks, 40° C. & 75% RH): 0.11%
RRT 1.77 ([2]; 2 weeks, 40° C. & 75% RH): 0.11%
Total Impurities ([2]; 2 weeks, 40° C. & 75% RH): 3.38%
stability ([2]; 5° C.): unstable
Compound 1 ([2]; Initial): 98.3%
RRT 1.19 ([2]; Initial): 0.20%
RRT 1.26 (beta-epimer) ([2]; Initial): 1.5%
Total Impurities ([2]; Initial): 1.70%
SMILES: CN(C)c1cc(CNCC(C)(C)C)c(O)c2c1CC1CC3C(N(C)C)C(O)=C(C(N)=O)C(=O)C3(O)C(O)=C1C2=O.CS(=O)(=O)O (stereo not shown) [mesylate salt of Compound 1]
